# Test results published in patent US20110130375A1 (priority 2008, published 2011).
# What was measured:
# [1] = tested on: isolated rabbit thoracic aorta preparations; assay: Assay on vascular tone (vasorelaxation of methoxamine-precontracted aortic rings); type: cell-based; settings: for EC50: Oryctolagus cuniculus, read-out: EC50 (concentration producing 50% of the maximum relaxation)
# Description: The ability of the compounds of the invention to induce vasorelaxation in comparison to precursor compound, was tested in vitro in isolated rabbit thoracic aorta preparations (Wanstall J. C. et al., Br. J. Pharmacol., 134:463-472, 2001).
# Male New Zealand rabbits (1, 8-2 Kg) were used. The animals were anaesthetized with sodium thiopental (50 mg/kg, iv), sacrificed by exsanguinations and then the thorax was opened and the aorta dissected. The aortas were placed immediately in Krebs-HEPES buffer (pH 7.4; composition mM: NaCl 130.0, KCl 3.7, NaHCO3 14.9, KH2PO4 1.2, MgSO4⊙7H2O 1.2, Glucose 11.0, HEPES 10.0, CaCl2.2H2O 1.6) and cut into ring segments (4-5 mm in length). Each ring was placed in a 5 ml tissue bath filled with Krebs-HEPES buffer (37° C.) aerated with 95% O2 and 5% CO2 and was then attached to a force transducer (Grass FT03), connected to a BIOPAC MP150 System for measurement of the isometric tension^2. The preparations were allowed to equilibrate for 1 h at a resting tension of 2 g with changes of the buffer every 15 minutes and then stimulated by exposure to 90 mM KCl (3 times) with intervening washings. After equilibration, the rings were precontracted submaximally with methoxamine (3 μM) and, when the contraction reach a steady state a cumulative concentration-response curve to the test compounds was obtained. The time intervals between doses were based on the time needed to reach a full a steady state response.
# Responses to test compounds were expressed as a percentage of residual contraction and plotted against concentration of test compound. EC50 values (where EC50 is the concentration producing 50% of the maximum relaxation to the test compound) were interpolated from these plots.
# [2] = tested on: corticosteroid-induced glaucoma; settings: rabbit, administered topically twice a day; cited from earlier work
Structure (SMILES),EC50 [1],further results
"C[C@H]1CC2C3CCC4=CC(=O)C=C[C@]4(C)[C@@]3(F)[C@@H](O)C[C@]2(C)[C@@]1(OC(=O)CCCO[N+](=O)[O-])C(=O)COC(=O)CCCO[N+](=O)[O-] (stereo partly drawn) [Compound (2), (9R,10S,11S,13S,16S,17R)-9-fluoro-11-hydroxy-10,13,16-trimethyl-17-(2-(4-(nitrooxy)butanoyloxy)acetyl)-3-oxo-6,7,8,9,10,11,12,13,14,15,16,17-dodecahydro-3H-cyclopenta[a]phenanthren-17-yl 4-(nitrooxy)butanoate]",1.68 ± 0.61 µM,
"COc1cc(C(=O)OCCCCO[N+](=O)[O-])ccc1OC(=O)OCC(=O)[C@@]1(OC(=O)CCCO[N+](=O)[O-])[C@@H](C)CC2C3CCC4=CC(=O)C=C[C@]4(C)[C@@]3(F)[C@@H](O)C[C@@]21C (stereo partly drawn) [Compound (3), 4-(nitrooxy)butyl 4-((2-((9R,10S,11S,13S,16S,17R)-9-fluoro-11-hydroxy-10,13,16-trimethyl-17-(4-(nitrooxy)butanoyloxy)-3-oxo-6,7,8,9,10,11,12,13,14,15,16,17-dodecahydro-3H-cyclopenta[a]phenanthren-17-yl)-2-oxoethoxy)carbonyloxy)-3-methoxybenzoate]",1.14 ± 0.48 µM,
"C[C@H]1C[C@H]2[C@@H]3CCC4=CC(=O)C=C[C@]4(C)[C@@]3(F)[C@@H](O)C[C@]2(C)[C@@]1(O)C(=O)CO [betamethasone, Betamethasone]",,"EC50 (concentration producing 50% of the maximum relaxation) ([1]; rabbit aortic rings precontracted with methoxamine (3 μM), cumulative concentration-response curve): no effect"
C[C@@H]1C[C@H]2[C@@H]3CCC4=CC(=O)C=C[C@]4(C)[C@@]3(F)[C@@H](O)C[C@]2(C)[C@@]1(O)C(=O)COC(=O)c1ccc(CO[N+](=O)[O-])cc1 [dexamethasone 21-[(4-nitrooxymethyl)]benzoate],,"effects in corticosteroid-induced glaucoma (intraocular pressure, retro bulbar circulation, ciliary body morphology) [2]: may prevent the intraocular pressure increase, the impairment of retro bulbar circulation, and the morphological changes in the ciliary bodies"
